According to ChEMBL document CHEMBL4507304, “Data for DCP probe TP-021” (2021):

Tests used:
[1] = target: ALK tyrosine kinase receptor (Homo sapiens) (UniProt Q9UM73); conditions: Compound concentration 1000.0 nM
[2] = target: Aurora kinase A (Homo sapiens) (UniProt O14965); conditions: Compound concentration 1000.0 nM
[3] = target: Bone morphogenetic protein receptor type-1B (Homo sapiens) (UniProt O00238); conditions: Compound concentration 1000.0 nM
[4] = target: Cyclin-dependent kinase 19 (Homo sapiens) (UniProt Q9BWU1); conditions: Compound concentration 1000.0 nM
[5] = target: Cyclin-dependent kinase 3 (Homo sapiens) (UniProt Q00526); conditions: Compound concentration 1000.0 nM
[6] = target: Cyclin-dependent kinase 7 (Homo sapiens) (UniProt P50613); conditions: Compound concentration 1000.0 nM
[7] = target: Serine/threonine-protein kinase DCLK2 (Homo sapiens) (UniProt Q8N568); conditions: Compound concentration 1000.0 nM
[8] = tested on: Epidermal growth factor receptor (Homo sapiens), P00533 [UNDEFINED MUTATION]; conditions: Compound concentration 1000.0 nM
[9] = tested on: Epidermal growth factor receptor (Homo sapiens), P00533 [UNDEFINED MUTATION]; conditions: Compound concentration 1000.0 nM; remark: listed apart in the source
[10] = tested on: Epidermal growth factor receptor (Homo sapiens), P00533 [L858R,T790M]; conditions: Compound concentration 1000.0 nM
[11] = tested on: Epidermal growth factor receptor (Homo sapiens), P00533 [T790M]; conditions: Compound concentration 1000.0 nM
[12] = target: Ephrin type-A receptor 5 (Homo sapiens) (UniProt P54756); conditions: Compound concentration 1000.0 nM
[13] = target: Mitogen-activated protein kinase 7 (Homo sapiens) (UniProt Q13164); conditions: Compound concentration 1000.0 nM
[14] = tested on: Fibroblast growth factor receptor 3 (Homo sapiens), P22607 [G697C]; conditions: Compound concentration 1000.0 nM
[15] = target: Serine/threonine-protein kinase haspin (Homo sapiens) (UniProt Q8TF76); conditions: Compound concentration 1000.0 nM
[16] = target: Insulin-like growth factor 1 receptor (Homo sapiens) (UniProt P08069); conditions: Compound concentration 1000.0 nM
[17] = target: Mitogen-activated protein kinase 9 (Homo sapiens) (UniProt P45984); conditions: Compound concentration 1000.0 nM
[18] = tested on: Mast/stem cell growth factor receptor Kit (Homo sapiens), P10721 [L576P]; conditions: Compound concentration 1000.0 nM
[19] = tested on: Mast/stem cell growth factor receptor Kit (Homo sapiens), P10721 [V559D]; conditions: Compound concentration 1000.0 nM
[20] = target: Mitogen-activated protein kinase kinase kinase 2 (Homo sapiens) (UniProt Q9Y2U5); conditions: Compound concentration 1000.0 nM
[21] = target: Serine/threonine-protein kinase MARK1 (Homo sapiens) (UniProt Q9P0L2); conditions: Compound concentration 1000.0 nM
[22] = tested on: Hepatocyte growth factor receptor (Homo sapiens), P08581 [Y1235D]; conditions: Compound concentration 1000.0 nM
[23] = target: Misshapen-like kinase 1 (Homo sapiens) (UniProt Q8N4C8); conditions: Compound concentration 1000.0 nM
[24] = target: Myosin light chain kinase (Homo sapiens) (UniProt Q32MK0); conditions: Compound concentration 1000.0 nM
[25] = target: Serine/threonine-protein kinase MRCK alpha (Homo sapiens) (UniProt Q5VT25); conditions: Compound concentration 1000.0 nM
[26] = target: Platelet-derived growth factor receptor beta (Homo sapiens) (UniProt P09619); conditions: Compound concentration 1000.0 nM
[27] = target: Calcium-dependent protein kinase 1 (Plasmodium falciparum) (UniProt P62344); conditions: Compound concentration 1000.0 nM
[28] = target: Cyclin-dependent kinase 15 (Homo sapiens) (UniProt Q96Q40); conditions: Compound concentration 1000.0 nM
[29] = target: Phosphatidylinositol 3-kinase C2 domain-containing subunit gamma (Homo sapiens) (UniProt O75747); conditions: Compound concentration 1000.0 nM
[30] = tested on: Phosphatidylinositol 4,5-bisphosphate 3-kinase catalytic subunit alpha isoform (Homo sapiens), P42336 [I800L]; conditions: Compound concentration 1000.0 nM
[31] = tested on: Phosphatidylinositol 4,5-bisphosphate 3-kinase catalytic subunit alpha isoform (Homo sapiens), P42336 [Q546K]; conditions: Compound concentration 1000.0 nM
[32] = target: Protein kinase C epsilon type (Homo sapiens) (UniProt Q02156); conditions: Compound concentration 1000.0 nM
[33] = target: Protein kinase C iota type (Homo sapiens) (UniProt P41743); conditions: Compound concentration 1000.0 nM
[34] = target: Rho-associated protein kinase 2 (Homo sapiens) (UniProt O75116); conditions: Compound concentration 1000.0 nM
[35] = target: Serine/threonine-protein kinase SIK1 (Homo sapiens) (UniProt P57059); conditions: Compound concentration 1000.0 nM
[36] = target: Serine/threonine-protein kinase SIK2 (Homo sapiens) (UniProt Q9H0K1); conditions: Compound concentration 1000.0 nM
[37] = target: SRSF protein kinase 3 (Homo sapiens) (UniProt Q9UPE1); conditions: Compound concentration 1000.0 nM
[38] = target: STE20/SPS1-related proline-alanine-rich protein kinase (Homo sapiens) (UniProt Q9UEW8); conditions: Compound concentration 1000.0 nM
[39] = target: Serine/threonine-protein kinase TAO1 (Homo sapiens) (UniProt Q7L7X3); conditions: Compound concentration 1000.0 nM
[40] = target: Serine/threonine-protein kinase TBK1 (Homo sapiens) (UniProt Q9UHD2); conditions: Compound concentration 1000.0 nM
[41] = target: TGF-beta receptor type-2 (Homo sapiens) (UniProt P37173); conditions: Compound concentration 1000.0 nM
[42] = target: High affinity nerve growth factor receptor (Homo sapiens) (UniProt P04629); conditions: Compound concentration 1000.0 nM
[43] = target: Non-receptor tyrosine-protein kinase TYK2 (Homo sapiens) (UniProt P29597); conditions: Compound concentration 1000.0 nM
[44] = target: Serine/threonine-protein kinase WNK4 (Homo sapiens) (UniProt Q96J92); conditions: Compound concentration 1000.0 nM
[45] = target: Histamine H1 receptor (Homo sapiens) (UniProt P35367); conditions: Compound concentration 10.0 uM

Serine/threonine-protein kinase TBK1 (Homo sapiens), sequence (Q9UHD2 whole entry): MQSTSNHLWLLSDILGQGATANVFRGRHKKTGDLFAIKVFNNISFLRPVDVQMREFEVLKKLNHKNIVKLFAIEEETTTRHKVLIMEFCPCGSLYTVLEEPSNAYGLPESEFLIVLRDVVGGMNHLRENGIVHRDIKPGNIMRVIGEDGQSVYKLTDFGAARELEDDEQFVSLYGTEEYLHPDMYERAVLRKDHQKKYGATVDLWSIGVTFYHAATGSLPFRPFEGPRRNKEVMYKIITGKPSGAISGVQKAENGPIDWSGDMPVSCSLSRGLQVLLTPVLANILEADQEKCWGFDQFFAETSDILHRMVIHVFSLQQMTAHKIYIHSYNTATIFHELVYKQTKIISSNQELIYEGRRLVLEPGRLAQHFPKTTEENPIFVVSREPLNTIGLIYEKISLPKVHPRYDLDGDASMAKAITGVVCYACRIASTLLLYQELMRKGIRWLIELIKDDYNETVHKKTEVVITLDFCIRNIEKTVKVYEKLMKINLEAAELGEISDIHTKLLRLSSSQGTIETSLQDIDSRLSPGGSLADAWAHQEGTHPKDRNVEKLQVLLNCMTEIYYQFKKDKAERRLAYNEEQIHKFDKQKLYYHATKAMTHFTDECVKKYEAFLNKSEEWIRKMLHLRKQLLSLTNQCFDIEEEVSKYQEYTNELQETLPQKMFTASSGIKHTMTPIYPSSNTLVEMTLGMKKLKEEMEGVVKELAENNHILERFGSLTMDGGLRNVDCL
Myosin light chain kinase (Homo sapiens), sequence (Q32MK0 whole entry): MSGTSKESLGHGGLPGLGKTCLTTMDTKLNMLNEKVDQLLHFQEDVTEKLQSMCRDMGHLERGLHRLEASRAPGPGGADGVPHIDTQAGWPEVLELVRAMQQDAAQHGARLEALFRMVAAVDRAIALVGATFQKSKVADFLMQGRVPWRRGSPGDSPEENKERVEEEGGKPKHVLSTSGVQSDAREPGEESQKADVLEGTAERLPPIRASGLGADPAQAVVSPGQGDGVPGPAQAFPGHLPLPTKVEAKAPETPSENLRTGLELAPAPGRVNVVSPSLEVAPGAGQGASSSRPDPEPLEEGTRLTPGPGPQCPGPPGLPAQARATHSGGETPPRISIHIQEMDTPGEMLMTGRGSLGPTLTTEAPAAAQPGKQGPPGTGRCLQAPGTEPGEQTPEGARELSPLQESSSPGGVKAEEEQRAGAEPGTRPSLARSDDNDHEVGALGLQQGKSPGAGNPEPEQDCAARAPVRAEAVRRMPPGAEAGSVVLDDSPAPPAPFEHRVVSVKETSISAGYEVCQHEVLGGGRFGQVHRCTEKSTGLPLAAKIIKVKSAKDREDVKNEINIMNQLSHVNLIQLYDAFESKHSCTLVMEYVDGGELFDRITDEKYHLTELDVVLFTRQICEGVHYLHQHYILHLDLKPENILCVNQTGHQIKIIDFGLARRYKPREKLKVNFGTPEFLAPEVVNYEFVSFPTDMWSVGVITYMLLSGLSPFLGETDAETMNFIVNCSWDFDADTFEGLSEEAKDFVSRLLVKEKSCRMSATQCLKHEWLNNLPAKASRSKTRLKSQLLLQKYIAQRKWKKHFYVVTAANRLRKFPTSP
Platelet-derived growth factor receptor beta (Homo sapiens), sequence (P09619 whole entry): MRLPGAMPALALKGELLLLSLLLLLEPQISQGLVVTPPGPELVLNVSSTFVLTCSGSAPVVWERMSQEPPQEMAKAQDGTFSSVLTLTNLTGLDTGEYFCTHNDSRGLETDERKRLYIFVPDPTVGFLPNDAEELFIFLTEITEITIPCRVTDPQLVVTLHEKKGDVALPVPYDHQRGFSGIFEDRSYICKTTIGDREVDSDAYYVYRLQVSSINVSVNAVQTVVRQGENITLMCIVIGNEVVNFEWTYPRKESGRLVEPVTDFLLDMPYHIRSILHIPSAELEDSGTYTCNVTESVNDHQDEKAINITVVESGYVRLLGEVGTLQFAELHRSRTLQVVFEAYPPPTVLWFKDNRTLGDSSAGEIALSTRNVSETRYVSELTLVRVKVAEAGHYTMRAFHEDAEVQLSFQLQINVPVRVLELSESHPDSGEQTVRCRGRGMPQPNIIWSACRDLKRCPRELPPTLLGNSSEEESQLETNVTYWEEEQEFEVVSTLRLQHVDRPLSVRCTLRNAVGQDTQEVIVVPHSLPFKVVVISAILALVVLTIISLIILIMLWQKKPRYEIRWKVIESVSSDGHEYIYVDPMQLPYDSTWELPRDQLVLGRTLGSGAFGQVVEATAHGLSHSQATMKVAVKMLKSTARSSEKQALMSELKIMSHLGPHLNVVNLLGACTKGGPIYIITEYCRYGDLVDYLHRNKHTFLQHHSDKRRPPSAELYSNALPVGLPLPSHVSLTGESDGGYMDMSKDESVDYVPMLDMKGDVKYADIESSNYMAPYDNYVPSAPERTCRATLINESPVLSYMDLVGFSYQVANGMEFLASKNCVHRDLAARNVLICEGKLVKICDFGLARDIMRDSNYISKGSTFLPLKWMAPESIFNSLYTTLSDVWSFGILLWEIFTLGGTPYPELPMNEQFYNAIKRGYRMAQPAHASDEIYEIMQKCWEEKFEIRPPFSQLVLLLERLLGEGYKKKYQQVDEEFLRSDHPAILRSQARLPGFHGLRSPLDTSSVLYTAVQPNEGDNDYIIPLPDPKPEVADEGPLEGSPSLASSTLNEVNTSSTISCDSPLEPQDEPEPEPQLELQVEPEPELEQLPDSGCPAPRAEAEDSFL
Misshapen-like kinase 1 (Homo sapiens), sequence (Q8N4C8 whole entry, looked up): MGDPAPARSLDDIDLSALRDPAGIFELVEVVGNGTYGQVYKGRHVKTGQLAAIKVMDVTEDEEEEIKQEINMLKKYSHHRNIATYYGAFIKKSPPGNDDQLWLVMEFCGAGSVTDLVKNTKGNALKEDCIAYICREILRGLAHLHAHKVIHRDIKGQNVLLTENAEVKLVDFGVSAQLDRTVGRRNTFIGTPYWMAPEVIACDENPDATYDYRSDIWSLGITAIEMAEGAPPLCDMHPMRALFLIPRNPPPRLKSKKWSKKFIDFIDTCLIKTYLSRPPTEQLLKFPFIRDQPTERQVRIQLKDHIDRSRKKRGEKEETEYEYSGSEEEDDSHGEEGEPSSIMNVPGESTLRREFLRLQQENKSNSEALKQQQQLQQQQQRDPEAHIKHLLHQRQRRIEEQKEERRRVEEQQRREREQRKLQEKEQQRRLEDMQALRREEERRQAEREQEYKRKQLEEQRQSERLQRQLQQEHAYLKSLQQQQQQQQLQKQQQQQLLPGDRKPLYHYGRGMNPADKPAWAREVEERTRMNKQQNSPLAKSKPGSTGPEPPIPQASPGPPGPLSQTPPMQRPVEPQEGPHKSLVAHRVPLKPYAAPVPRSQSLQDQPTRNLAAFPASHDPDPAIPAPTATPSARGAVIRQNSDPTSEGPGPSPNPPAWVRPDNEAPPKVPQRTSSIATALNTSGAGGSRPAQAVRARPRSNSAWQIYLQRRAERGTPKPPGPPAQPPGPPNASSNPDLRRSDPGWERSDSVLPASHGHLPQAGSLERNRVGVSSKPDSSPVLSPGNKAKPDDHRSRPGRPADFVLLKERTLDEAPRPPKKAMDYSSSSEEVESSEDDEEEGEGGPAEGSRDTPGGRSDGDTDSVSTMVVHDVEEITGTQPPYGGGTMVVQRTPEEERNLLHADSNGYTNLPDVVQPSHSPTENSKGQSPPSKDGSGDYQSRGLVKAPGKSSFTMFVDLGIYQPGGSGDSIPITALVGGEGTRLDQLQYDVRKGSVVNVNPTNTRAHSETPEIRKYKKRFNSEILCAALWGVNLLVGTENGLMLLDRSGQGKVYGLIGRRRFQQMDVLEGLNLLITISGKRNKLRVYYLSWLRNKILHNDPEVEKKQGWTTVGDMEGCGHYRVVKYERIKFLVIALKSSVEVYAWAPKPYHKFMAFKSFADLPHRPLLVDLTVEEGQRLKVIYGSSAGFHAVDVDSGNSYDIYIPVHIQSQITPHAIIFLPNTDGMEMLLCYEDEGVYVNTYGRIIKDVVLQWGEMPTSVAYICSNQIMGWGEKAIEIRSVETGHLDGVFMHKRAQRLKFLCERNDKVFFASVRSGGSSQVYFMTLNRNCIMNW
Phosphatidylinositol 4,5-bisphosphate 3-kinase catalytic subunit alpha isoform (Homo sapiens), P42336 [Q546K], sequence (P42336 whole entry Q546K, canonical isoform): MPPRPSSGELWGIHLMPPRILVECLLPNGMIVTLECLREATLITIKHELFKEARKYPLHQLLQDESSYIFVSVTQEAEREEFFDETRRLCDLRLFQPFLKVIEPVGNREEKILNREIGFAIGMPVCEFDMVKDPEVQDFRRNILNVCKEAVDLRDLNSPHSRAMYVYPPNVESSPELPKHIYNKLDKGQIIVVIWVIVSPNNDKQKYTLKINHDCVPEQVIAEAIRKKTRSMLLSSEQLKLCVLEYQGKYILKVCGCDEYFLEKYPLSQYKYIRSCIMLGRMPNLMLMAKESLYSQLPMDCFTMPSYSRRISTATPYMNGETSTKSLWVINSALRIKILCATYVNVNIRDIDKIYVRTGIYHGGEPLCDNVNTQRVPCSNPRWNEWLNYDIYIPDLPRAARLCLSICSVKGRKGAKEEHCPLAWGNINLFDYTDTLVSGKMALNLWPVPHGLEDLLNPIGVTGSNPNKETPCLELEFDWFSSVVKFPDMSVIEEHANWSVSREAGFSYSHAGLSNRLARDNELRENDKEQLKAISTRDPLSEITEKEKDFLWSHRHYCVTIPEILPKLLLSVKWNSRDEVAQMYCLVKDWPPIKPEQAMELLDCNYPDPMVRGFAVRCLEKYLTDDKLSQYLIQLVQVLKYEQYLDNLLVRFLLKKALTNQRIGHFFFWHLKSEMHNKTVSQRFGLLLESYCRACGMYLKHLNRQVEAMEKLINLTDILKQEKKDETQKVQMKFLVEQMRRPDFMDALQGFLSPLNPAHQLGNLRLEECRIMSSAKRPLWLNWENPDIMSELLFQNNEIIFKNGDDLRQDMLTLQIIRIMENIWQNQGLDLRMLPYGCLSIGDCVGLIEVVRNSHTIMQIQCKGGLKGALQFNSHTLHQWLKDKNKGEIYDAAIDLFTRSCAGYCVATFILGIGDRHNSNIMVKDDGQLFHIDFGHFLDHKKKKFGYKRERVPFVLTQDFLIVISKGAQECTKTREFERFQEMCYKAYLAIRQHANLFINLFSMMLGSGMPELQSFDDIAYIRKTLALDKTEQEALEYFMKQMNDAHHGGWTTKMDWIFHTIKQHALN
Phosphatidylinositol 4,5-bisphosphate 3-kinase catalytic subunit alpha isoform (Homo sapiens), P42336 [I800L], sequence (P42336 whole entry I800L, canonical isoform): as the sequence (P42336 whole entry Q546K, canonical isoform) above, with K546Q, I800L counted along it

N#Cc1ccc(Nc2ccc3[nH]c(=O)[nH]c3c2)c(Cl)c1
inactive: residual activity [1] 100% | residual activity [2] 87% | residual activity [3] 100% | residual activity [4] 77% | residual activity [5] 100% | residual activity [6] 99% | residual activity [7] 100% | residual activity [8] 100% | residual activity [9] 100% | residual activity [10] 79% | residual activity [11] 91% | residual activity [12] 100% | residual activity [13] 100% | residual activity [14] 93% | residual activity [15] 100% | residual activity [16] 99% | residual activity [17] 100% | residual activity [18] 89% | residual activity [19] 100% | residual activity [20] 100% | residual activity [21] 90% | residual activity [22] 95% | residual activity [23] 91% | residual activity [24] 93% | residual activity [25] 100% | residual activity [26] 100% | residual activity [27] 99% | residual activity [28] 94% | residual activity [29] 95% | residual activity [30] 77% | residual activity [31] 93% | residual activity [32] 100% | residual activity [33] 86% | residual activity [34] 100% | residual activity [35] 100% | residual activity [36] 100% | residual activity [37] 100% | residual activity [38] 100% | residual activity [39] 97% | residual activity [40] 100% | residual activity [41] 100% | residual activity [42] 93% | residual activity [43] 100% | residual activity [44] 100% | inhibition [45] 14.7%

O=C1CCc2cc(Nc3cc(OC4CCOCC4)c([N+](=O)[O-])cc3Cl)ccc2N1
inactive: residual activity [1] 82% | residual activity [2] 87% | residual activity [3] 87% | residual activity [4] 72% | residual activity [5] 100% | residual activity [6] 86% | residual activity [7] 100% | residual activity [8] 100% | residual activity [9] 92% | residual activity [10] 76% | residual activity [11] 85% | residual activity [12] 93% | residual activity [13] 100% | residual activity [14] 79% | residual activity [15] 100% | residual activity [16] 86% | residual activity [17] 86% | residual activity [18] 100% | residual activity [19] 100% | residual activity [20] 100% | residual activity [21] 99% | residual activity [22] 100% | residual activity [23] 83% | residual activity [24] 100% | residual activity [25] 91% | residual activity [26] 97% | residual activity [27] 100% | residual activity [28] 73% | residual activity [29] 94% | residual activity [30] 63% | residual activity [31] 70% | residual activity [32] 93% | residual activity [33] 98% | residual activity [34] 100% | residual activity [35] 96% | residual activity [36] 100% | residual activity [37] 100% | residual activity [38] 100% | residual activity [39] 81% | residual activity [40] 100% | residual activity [41] 98% | residual activity [42] 94% | residual activity [43] 94% | residual activity [44] 100% | inhibition [45] 17%
